Source: patent publication US11370762B2, “Vinylarene derivative and application” (SHENYANG RESEARCH INSTITUTE OF CHEMICAL INDUSTRY CO., LTD., priority 2017, dated 2022)
Where two headings read alike, the source gives them in different places.

Columns and labels:
[1] = molecular target: T1, IDO1 enzyme in Hela cells (Homo sapiens, UniProt P14902); assay: Inhibition of IDO1 enzyme in IFN-γ stimulated Hela cells (kynurenine read at 480 nm); type: cell-based; settings: for inhibition at 0.1 µM: read-out: Inhibition rate (%) 100 nmol; for inhibition at 10 µM: read-out: Inhibition rate (%) 10 μmol; for activity compared with positive control drugs INCB024360 and IN-4 / IC50: Hela cells; for activity compared with positive control drugs INCB024360 and IN-4: IC50 comparison; for IC50: read-out: Inhibition rate IC50 (nmol/L) on IDO1 enzyme activity in Hela cells
T1 construct: endogenous in cells; host or cells: HeLa cells stimulated with human recombinant IFN-γ

[2] = Oral pharmacokinetic test of compound 55 in rats; type: in vivo; settings: male, Sprague-Dawley, plasma, rat, 30 mg/kg
Method: Pharmacokinetic Test and Results of Compound 55:
12 Male Sprague-Dawley rats were grouped random. The final concentration of compound 55 was 1.5 mg/ml. The drug was dissolved in a solvent system of 10% DMSO, 10% hydrogenated castor oil and […] (compounds were dissolved by DMSO, hydrogenated castor oil and saline in turn by vortex or ultrasound), and the drug solution was given orally (30 mg/kg). The rats were fasted overnight but had free access to water, feeding resumed 4 hours after administration. Blood samples (0.3-0.4 mL) were collected into heparinized tubes by Retinal vein plexus at 0, 0.17, 0.33, 0.67, 1, 2, 4, 7, 10 and 24 hours after administration orally. Tubes were anticoagulated with heparin sodium (5% heparin sodium solution filled EP tube, poured out, dried). 100 uL plasma was obtained by centrifugation (10000 rpm, 3 min) and stored at −20° C. before analysis.

colon cancer CT26 [3] = assay: In vivo pharmacodynamics, anti-colon cancer CT26 activity (intraperitoneal injection, once daily); settings: CT26 in BALB/c mice; for Inhibition rate (%) of tumor weight / Tumor weight: 50 mg/kg daily intraperitoneal injection, two weeks; for activity at the end of the experiment compared with other groups: once daily dosing
Method: Pharmacodynamics of Some Compounds In Vivo (Intraperitoneal Injection):
(§1) The anti-colon cancer CT26 activity of these compounds was tested in vivo. 1×10^6 CT26 cells were inoculated subcutaneously in the right axillary of BALB/c mice by cell suspension inoculation. When the growth of tumors were clearly observed, 42 moderately tumor size animals were selected and randomly divided into test group, solvent control group and positive drug group, with 6 animals in each group. […] The compound groups were intraperitoneally injected with 50 mg/kg of the compound every day, while the solvent control group was given the same dosage with the same volume of mixed solvent. The weight of the mice and the length and short diameter of the transplanted tumors were measured three times a week during the administration. The tumor volume (VT), relative volume (RVT) and tumor proliferation rate (T/C %) were calculated. After two weeks of administration, nude mice bearing tumors in each experimental group were executed by neck-lifting method. Solid tumour tissues were completely dissected. The weight of tumors in each experimental group was measured and the growth inhibition rate (%) was calculated.

colon cancer CT26 [4] = assay: In vivo pharmacodynamics, anti-colon cancer CT26 activity (oral administration, twice a day); design: species or system BALB/c mice; settings: two weeks
Method: Pharmacodynamic of Some Compounds In Vivo (Oral Administration):
as §1, with “observed, 56” for “observed, 42”, “with 8” for “with 6”, “The” for “The compound groups were intraperitoneally injected with 50 mg/kg of the compound every day, while the”, “same” for “same dosage with the same”, “mixed solvents by oral. The above groups were administered twice a day.” for “mixed solvent.”

colon cancer CT26 [5] = assay: as above; design: species or system BALB/c mice; settings: 50 mg/kg intraperitoneal injection (IP), two weeks
[6] = literature value, species not stated; cited from earlier work
colon cancer CT26 [7] = assay: In vivo pharmacodynamics, anti-colon cancer CT26 activity (intraperitoneal injection, once daily); settings: 300 mg/kg daily by oral, two weeks, CT26 in BALB/c mice
[8] = 100 nmol compound, IFN-γ stimulated Hela cells, 48 hours
[9] = 10 μmol compound, IFN-γ stimulated Hela cells, 48 hours

T1 sequence (P14902 whole entry): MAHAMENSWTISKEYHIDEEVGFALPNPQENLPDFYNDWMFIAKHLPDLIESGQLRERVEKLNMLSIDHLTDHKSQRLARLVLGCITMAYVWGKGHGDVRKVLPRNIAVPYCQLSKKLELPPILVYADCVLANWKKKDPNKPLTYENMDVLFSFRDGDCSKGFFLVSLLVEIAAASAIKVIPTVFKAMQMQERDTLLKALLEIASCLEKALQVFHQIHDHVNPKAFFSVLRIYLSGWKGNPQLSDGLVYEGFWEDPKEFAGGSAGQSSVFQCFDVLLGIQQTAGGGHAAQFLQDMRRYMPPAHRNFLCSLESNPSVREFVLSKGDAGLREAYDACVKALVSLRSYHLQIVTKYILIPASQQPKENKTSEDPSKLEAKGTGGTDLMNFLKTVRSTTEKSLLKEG

## CCCCN(CCCC)c1ccc(/C(C)=C/C(=O)OCC)cc1NC(=S)Nc1ccccc1 [Compound 1025]
[1]; [8]
  inhibition at 0.1 µM: 24.6%
[1]; [9]
  inhibition at 10 µM: 68.8%

## CCCCN(CCCC)c1ccc(/C(C)=C/C(=O)O)cc1NC(=S)Nc1ccccc1 [Compound 1031]
[1]; [8]
  inhibition at 0.1 µM: 29.6%
[1]; [9]
  inhibition at 10 µM: 72.7%

## C/C(=C/C(=O)O)c1ccc(N(CC(C)C)CC(C)C)c(NC(=O)Nc2ccc(F)cc2F)c1 [Compound 55, (Z)-3-(3-(3-(2,4-difluorophenyl)ureido)-4-(diisobutylamino)phenyl)but-2-enoic acid]
[1]
  activity compared with positive control drugs INCB024360 and IN-4: can reach or exceed those of the positive control drugs INCB024360 and IN-4
  IC50: 0.09 nmol/L
[2]
  AUC: 43700 ng·h/mL
  Cmax: 16800 ng/mL
  half-life: 5 h
Colon cancer CT26 [3]
  Inhibition rate (%) of tumor weight: 37.02%
  Tumor weight: 2121.17 ± 343.15 mg
  activity at the end of the experiment compared with other groups: equivalent to that of 1-MT
Colon cancer CT26 [4]; 20 mg/kg oral (low dose)
  Inhibition rate (%) of tumor weight: 12.42%
  Tumor weight: 1109.75 ± 191.47 mg
Colon cancer CT26 [4]; 50 mg/kg oral
  Inhibition rate (%) of tumor weight: 27.06%
  Tumor weight: 924.25 ± 150.35 mg
Colon cancer CT26 [4]; 100 mg/kg oral (high dose)
  Inhibition rate (%) of tumor weight: 33.16%
  Tumor weight: 847.00 ± 305.01 mg
Colon cancer CT26 [5]
  Inhibition rate (%) of tumor weight: 34.97%
  Tumor weight: 824.00 ± 161.64 mg

## CCCCN(CCCC)c1ccc(/C(C)=C/C(=O)O)cc1NC(=O)Nc1ccc(Cl)c(C(F)(F)F)c1 [Compound 1030]
[1]; [8]
  inhibition at 0.1 µM: 23.8%
[1]; [9]
  inhibition at 10 µM: 100%

## CCCCN(CCCC)c1ccc(/C(C)=C/C(=O)O)cc1NC(=O)Nc1cccc(Cl)c1 [Compound 1028]
[1]; [8]
  inhibition at 0.1 µM: 41.5%
[1]; [9]
  inhibition at 10 µM: 100%

## C/C(=C/C(=O)O)c1ccc(N(CC(C)C)CC(C)C)c(NC(=O)Nc2ccc(C)cc2)c1 [Compound 51]
[1]
  activity compared with positive control drugs INCB024360 and IN-4: can reach or exceed those of the positive control drugs INCB024360 and IN-4
  IC50: 3.69 nmol/L

## CCCCN(CCCC)c1ccc(/C(C)=C/C(=O)OCC)cc1NC(=O)Cc1ccccc1F [Compound 772]
[1]; [8]
  inhibition at 0.1 µM: 74.2%
[1]; [9]
  inhibition at 10 µM: 100%

## CCCCN(CCCC)c1ccc(/C(C)=C/C(=O)O)cc1NC(=O)Nc1ccc(C)cc1F [Compound 530]
[1]
  IC50: 8.26 nmol/L

## CCCCN(CCCC)c1ccc(/C(C)=C/C(=O)OCC)cc1NC(=O)Nc1ccc(Cl)c(C(F)(F)F)c1 [Compound 1024]
[1]; [8]
  inhibition at 0.1 µM: 29.5%
[1]; [9]
  inhibition at 10 µM: 58.2%

## C/C(=C/C(=O)O)c1ccc(N(CC(C)C)CC(C)C)c(NC(=O)Nc2ccc(C)cc2F)c1 [Compound 56]
[1]
  activity compared with positive control drugs INCB024360 and IN-4: can reach or exceed those of the positive control drugs INCB024360 and IN-4
  IC50: 0.13 nmol/L

## CCCCN(CCCC)c1ccc(/C(C)=C\C(=O)O)cc1NC(=O)Nc1ccc(C)cc1F [Compound 14]
[1]; [8]
  inhibition at 0.1 µM: 100%
[1]; [9]
  inhibition at 10 µM: 100%
[1]
  activity compared with positive control drugs INCB024360 and IN-4: can reach or exceed those of the positive control drugs INCB024360 and IN-4
  IC50: 0.18 nmol/L
Colon cancer CT26 [3]
  Inhibition rate (%) of tumor weight: 19.02%
  Tumor weight: 2727.33 ± 404.42 mg
Colon cancer CT26 [4]; 50 mg/kg oral
  Inhibition rate (%) of tumor weight: 37.39%
  Tumor weight: 793.38 ± 246.34 mg

## CCCCN(CCCC)c1ccc(/C(C)=C\C(=O)O)cc1NC(=O)Nc1ccc(F)cc1F [Compound 13]
[1]; [8]
  inhibition at 0.1 µM: 100%
[1]; [9]
  inhibition at 10 µM: 100%
[1]
  activity compared with positive control drugs INCB024360 and IN-4: can reach or exceed those of the positive control drugs INCB024360 and IN-4
  IC50: 3.69 nmol/L

## CCOC(=O)/C=C(\C)c1ccc(N(CC(C)C)CC(C)C)c(NC(=O)Nc2ccc(F)cc2F)c1 [Compound 564, ethyl (E)-3-(3-(3-(2,4-difluorophenyl)ureido)-4-(diisobutylamino)phenyl) but-2-enoate]
[1]; [8]
  inhibition at 0.1 µM: 72.2%
[1]; [9]
  inhibition at 10 µM: 100%

## CCCCN(CCCC)c1ccc(/C(C)=C/C(=O)OCC)cc1NC(=O)Nc1cccc(C)c1 [Compound 1026]
[1]; [8]
  inhibition at 0.1 µM: 21%
[1]; [9]
  inhibition at 10 µM: 54.3%

## CCCCN(CCCC)c1ccc(/C(C)=C/C(=O)OCC)cc1NC(=O)Nc1ccccc1Cl [Compound 1021]
[1]; [8]
  inhibition at 0.1 µM: 42.1%
[1]; [9]
  inhibition at 10 µM: 100%

## CCCCN(CCCC)c1ccc(/C(C)=C/C(=O)O)cc1NC(=O)Nc1ccccc1Cl [Compound 1027]
[1]; [8]
  inhibition at 0.1 µM: 71.1%
[1]; [9]
  inhibition at 10 µM: 100%

## NS(=O)(=O)NCCNc1nonc1C(=NO)Nc1ccc(F)c(Br)c1 [INCB024360, reference compound]
Colon cancer CT26 [3]
  Inhibition rate (%) of tumor weight: 10.23%
  Tumor weight: 3026.17 ± 409.75 mg
Colon cancer CT26 [4]; 50 mg/kg oral
  Inhibition rate (%) of tumor weight: 33.66%
  Tumor weight: 840.63 ± 144.34 mg
[6]
  T1/2 reported in the literature: 2.3 h

## Cn1cc(C[C@@H](N)C(=O)O)c2ccccc21 [Compound 1-MT, 1-methyl-D-tryptophan]
Colon cancer CT26 [3]
  activity at the end of the experiment compared with other groups: better than that of INCB024360
Colon cancer CT26 [7]
  Inhibition rate (%) of tumor weight: 25.5%
  Tumor weight: 2509.17 ± 352.16 mg

## CCCCN(CCCC)c1ccc(/C(C)=C/C(=O)OCC)cc1NC(=O)Nc1ccc(C)cc1 [Compound 518, ethyl (E)-3-(4-(dibutylamino)-3-(3-(p-tolyl)ureido)phenyl)but-2-enoate]
[1]; HeLa, 48 h
  inhibition at 0.1 µM: 76.8%
  inhibition at 10 µM: 100%

## CCCCN(CCCC)c1ccc(/C(C)=C/C(=O)OCC)cc1NC(=O)Nc1cccc(Cl)c1 [Compound 1022]
[1]; [8]
  inhibition at 0.1 µM: 21.2%
[1]; [9]
  inhibition at 10 µM: 53.7%

## CCCCN(CCCC)c1ccc(/C(C)=C/C(=O)OCC)cc1NC(=O)Nc1ccc(Cl)cc1 [Compound 1023]
[1]; [8]
  inhibition at 0.1 µM: 35.1%
[1]; [9]
  inhibition at 10 µM: 100%

## CCCCN(CCCC)c1ccc(/C(C)=C/C(=O)O)cc1NC(=O)Cc1ccccc1F [Compound 779]
[1]; [8]
  inhibition at 0.1 µM: 77.1%
[1]; [9]
  inhibition at 10 µM: 100%
